Legend:
Experiment in all cases: DRaCALA, one-site saturation fit
Assay type in all cases: binding
[1] = molecular target: T1, RNAPΔω (no DksA; lacking Sites 1 and 2) (Escherichia coli, UniProt P0A8T7); conditions: read-out: Kd,app
T1 construct: gene rpoC; RNAP lacking omega, purified from a ΔrpoZ strain, no DksA added; with DNA-directed RNA polymerase subunit alpha; DNA-directed RNA polymerase subunit beta

[2] = molecular target: T2, wild-type RNAP-TraR complex (Escherichia coli, UniProt P0A800+P0A8T7); conditions: Site 1; TraR present; labelled compound [32P]-ppGpp; unreliable (printed 'at least'; curve did not plateau); non-equilibrium assay
T2 construct: gene rpoZ; recombinant core RNAP saturated with omega plus purified TraR (encoded by F element); ppGpp at Site 1; with DNA-directed RNA polymerase subunit alpha; DNA-directed RNA polymerase subunit beta; Protein TraR

[3] = molecular target: T3, wild-type RNAP with DksA (Sites 1 and 2) (Escherichia coli, UniProt P0A800+P0A8T7+P0ABS1, P0ABS1:R129A)
T3 construct: gene rpoZ; recombinant core RNAP saturated with omega plus saturating purified DksA; with DNA-directed RNA polymerase subunit alpha; DNA-directed RNA polymerase subunit beta

[4] = molecular target: T4, wild-type RNAP with DksA (Sites 1 and 2) (Escherichia coli, UniProt P0A800+P0A8T7+P0ABS1); conditions: read-out: Kd,app
T4 construct: gene rpoZ; recombinant core RNAP saturated with omega plus saturating purified DksA; with DNA-directed RNA polymerase subunit alpha; DNA-directed RNA polymerase subunit beta

[5] = molecular target: T5, wild-type RNAP with DksA (Sites 1 and 2) (Escherichia coli, UniProt P0A800+P0A8T7+P0ABS1, P0ABS1:K98A)
T5 construct: gene rpoZ; recombinant core RNAP saturated with omega plus saturating purified DksA; with DNA-directed RNA polymerase subunit alpha; DNA-directed RNA polymerase subunit beta

[6] = molecular target: T6, RNAPΔω with DksA (Site 2 only) (Escherichia coli, UniProt P0A8T7+P0ABS1); conditions: read-out: Kd,app
T6 construct: gene rpoC; with DNA-directed RNA polymerase subunit alpha; DNA-directed RNA polymerase subunit beta

[7] = molecular target: T7, wild-type RNAP (without DksA; Site 1 only) (Escherichia coli, UniProt P0A800+P0A8T7, P0A800:DEL2-5)
T7 construct: gene rpoZ; recombinant core RNAP, alpha, beta, beta' from one plasmid and omega from a second plasmid, omega saturating; with DNA-directed RNA polymerase subunit alpha; DNA-directed RNA polymerase subunit beta

[8] = molecular target: T8, wild-type RNAP-GreB complex (Escherichia coli, UniProt P0A800+P0A8T7); conditions: read-out: Kd,app
T8 construct: gene rpoZ; recombinant core RNAP saturated with omega plus purified GreB; ppGpp at Site 1; with DNA-directed RNA polymerase subunit alpha; DNA-directed RNA polymerase subunit beta; Transcription elongation factor GreB

[9] = molecular target: T9, wild-type RNAP (without DksA; Site 1 only) (Escherichia coli, UniProt P0A800+P0A8T7); conditions: read-out: Kd,app
T9 construct: gene rpoZ; recombinant core RNAP, alpha, beta, beta' from one plasmid and omega from a second plasmid, omega saturating; with DNA-directed RNA polymerase subunit alpha; DNA-directed RNA polymerase subunit beta

Nc1nc2c(ncn2[C@@H]2O[C@H](COP(=O)(O)OP(=O)(O)O)[C@@H](OP(=O)(O)OP(=O)(O)O)[C@H]2O)c(=O)[nH]1 [ppGpp, guanosine 5'-diphosphate 3'-diphosphate]
Kd [1]: > 100 µM
Kd,app [2]: > 4.2 ± 0.6 µM
Kd [3]: ~1.8 µM
Kd [4]: 3.3 ± 1.2 µM
Kd [5]: ~1.3 µM
Kd [6]: 7.9 ± 1.3 µM
Kd [7]: > 100 µM
Kd [8]: ~6.4 µM
Kd [9]: 6.1 ± 1.3 µM
